Source: patent US20240140947A1, “COMPOUND FOR THE TREATMENT OF CANCER” (priority 2022, published 2024)
Like-named read-outs stand apart in the source and are kept apart here.

Key:
[1] = Human plasma protein binding (equilibrium dialysis); assay type: in vitro ADME; conditions: 6-hour incubation, pH 7.4, read-out: fup: human plasma unbound fraction
Procedure: Frozen plasma in K3EDTA was purchased from BiolVT and Dulbecco's phosphate buffered saline (DPBS) and HCl were purchased from Sigma. Human plasma unbound fraction (fu r) was determined by equilibrium dialysis using an HTD 96 device (HTDialysis, LLC, Gales Ferry, CT) assembled with 12-14k MWCO membranes. Plasma was thawed and adjusted to pH 7.4 with 1 N HCl prior to use. Dialysis chambers were loaded with 150 μL plasma and 150 μL PBS in the donor and receiver chambers, respectively. The dialysis plate was sealed with a gas-permeable membrane and stored in a 37° C. water-jacked incubator maintained at 75% relative humidity and 5% CO2, on a 100 rpm plate shaker. After a 6-hour incubation, samples were matrix-matched and quench by protein precipitation, followed by LC-MS analysis. A set of satellite samples was included to measure stability after a 6-hour incubation. Incubations were conducted with 4 to 12 replicates. The fup was calculated by dividing the analyte-to-internal standard peak area ratio or analyte concentration in the buffer sample by the signal in the donor sample, corrected for any dilution factors.

[2] = Human blood binding (fub = fup/BPR); assay type: in vitro ADME; conditions: fup divided by BPR
Procedure: Compound 1 has been evaluated according to methods well known in the art, for its ability to partition between human plasma and blood. Based on the observed partitioning and plasma protein binding, the blood binding was estimated based on human blood unbound fraction (fub)=human plasma unbound fraction (fup)/human blood-to-plasma partition ratio (BPR). Human blood unbound fraction (fub) was calculated by dividing fup by BPR.

[3] = test system: T47D PalboR; experiment: Cell proliferation assay (CYQUANT, 7 days), T47D PalboR; assay type: cell-based; conditions: Homo sapiens, 168 h, read-out: IC50 ± SEM, proliferation inhibition
Procedure: (§1) Cellular CDK activity of Compound 1 and PF-06873600 were assessed in human CCNE1-amplified ovarian cancer cell line model OVCAR3 and human ER+ breast cancer cell line model MCF7 cells. […] OVCAR3 cells were treated overnight with 1 mM hydroxyurea to enrich for G1/S phase cells prior to treatment with inhibitors. Functional effects were measured in a 7-day anti-proliferation assay in one human ovarian cancer (OVCAR3), two human ER+ breast cancer (MCF7 and T47D) and three human non-small cell lung cancer (NCIH2087, NCIH358 and A549) cell line models.
(§2) OVCAR3, MCF7, T47D, HCC1428, NCIH2087, NCIH358 or A549cells were seeded 1-3000 cells/well in 96-well plates in growth media containing 10% FBS and cultured overnight at 37° C. 5% CO2. […] CYQUANT Direct Cell Proliferation Assay (Molecular Probes, Eugene, OR) was then performed following manufacturer recommendations to determine the relative viable cell numbers on the Perkin Elmer Envision 2104 Multi Label Reader at 508 nm excitation and 527 nm emission wavelengths. IC50 values were calculated by concentration-response curve fitting utilizing a four-parameter analytical method using GraphPad Prism software.
(§3) The effect of Compound 1 on cell proliferation was assessed in multiple ER+ breast cancer cell lines, including parental and palbociclib resistant cell lines.

[4] = test system: HCC1428 parental; experiment: Cell proliferation assay (CYQUANT, 7 days), HCC1428 parental; assay type: cell-based; conditions: Homo sapiens, read-out: IC50 ± SEM, proliferation inhibition
Procedure: (§4) OVCAR3, MCF7, T47D, HCC1428, NCIH2087, NCIH358 or A549cells were seeded 1-3000 cells/well in 96-well plates in growth media containing 10% FBS and cultured overnight at 37° C. 5% CO2. The following day, compounds were serially diluted from a 10 mM top dose for an 11-point 3-fold dilution curve in DMSO. Compound 1 and PF-06873600 were intermediately diluted 1:200 into growth media prior to diluting 1:5 on cells for final concentration 10 μM to 0.1 nM in 0.1% DMSO on cells. Cells were incubated at 37° C. 5% CO2 for 7 days. CYQUANT Direct Cell Proliferation Assay (Molecular Probes, Eugene, OR) was then performed following manufacturer recommendations to determine the relative viable cell numbers on the Perkin Elmer Envision 2104 Multi Label Reader at 508 nm excitation and 527 nm emission wavelengths. IC50 values were calculated by concentration-response curve fitting utilizing a four-parameter analytical method using GraphPad Prism software.
as §3

[5] = Dog i.v. pharmacokinetic study; assay type: in vivo; conditions: for Vd: dog, plasma, iv, 0.1 mg/kg, male Beagle dogs, read-out: Dog Vdss
Procedure: Dog PK studies were done at Pfizer (Groton, CT); animal care and in vivo procedures were conducted according to guidelines from the Pfizer Institutional Animal Care and Use Committee. Male Beagle dogs were purchased from Marshall BioResources (North Rose, New York) and were typically 1-5 years of age at the time of dosing. Compounds were administered i.v. via the cephalic vein (n=2), dosed as a solution using standard compatible excipients at 0.5 mL/kg for a resulting dose of 0.1 mg/kg. Serial blood samples were collected via the jugular vein at predetermined timepoints after dosing. Animals were monitored for pain or distress throughout the study, with at least daily monitoring during normal husbandry prior to study start. Blood samples were collected into tubes containing K3EDTA and stored on ice until centrifugation to obtain plasma, which was stored frozen at −20° C. or lower. Urine samples were collected at room temperature and stored frozen at −20° C. or lower at the end of each time interval. Plasma samples from the animal PK studies were processed using protein precipitation with acetonitrile: methanol (1:1) containing internal standard verapamil followed by quantitation by LC-MS/MS against a standard curve prepared in blank plasma. Pharmacokinetic parameters were calculated using noncompartmental analysis (Watson v.7.5, Thermo Scientific).

[6] = test system: HCC1428 PalboR; experiment: Cell proliferation assay (CYQUANT, 7 days), HCC1428 PalboR; assay type: cell-based; conditions: Homo sapiens, read-out: IC50 ± SEM, proliferation inhibition
Procedure: as §4, §3

[7] = test system: NCIH2087; experiment: Cell proliferation assay (CYQUANT, 7 days), NCIH2087; assay type: cell-based; conditions: Homo sapiens, NCI-H2087, 168 h, read-out: IC50 ± SEM, proliferation inhibition
Procedure: as §1
as §2, with “CO2. The following day, compounds were serially diluted from a 10 mM top dose for an 11-point 3-fold dilution curve in DMSO.” for “CO2.”

[8] = test system: A549; experiment: Cell proliferation assay (CYQUANT, 7 days), A549; assay type: cell-based; conditions: Homo sapiens, read-out: IC50 ± SEM, proliferation inhibition
Procedure: as §1
as §2, with “CO2. The following day, compounds were serially diluted from a 10 mM top dose for an 11-point 3-fold dilution curve in DMSO.” for “CO2.”

Compound: C[C@@]1(O)CCC[C@H]1n1c(=O)c(CC(F)F)cc2cnc(NC3CCN(S(N)(=O)=O)CC3)nc21 [Compound 1, 4-({6-(2,2-difluoroethyl)-8-[(1R,2R)-2-hydroxy-2-methylcyclopentyl]-7-oxo-7,8-dihydropyrido[2,3-d]pyrimidin-2-yl}amino)piperidine-1-sulfonamide]
- fraction unbound at 6 h [1]: 0.174
- fraction unbound [2]: 0.0022
- IC50 ([3]; T47D PalboR, 7 days, mean): 65.7 ± 8.8 nM
- IC50 ([4]; 168 h, HCC1428 parental, 7 days, mean): 14.3 ± 4.4 nM
- Dog Vdss unbound: (Dog Vdss/dog plasma fu) [5]: 6.7 L/kg
- Vd [5]: 1.5 L/kg
- IC50 ([6]; 168 h, HCC1428 PalboR, 7 days, mean): 61.4 ± 4.9 nM
- IC50 ([7]; NCIH2087, 7 days, mean): 40 ± 6.8 nM
- IC50 ([8]; 168 h, A549, 7 days, mean): 121 ± 10.1 nM

Compound: C[C@@]1(O)CCC[C@H]1n1c(=O)c(C(F)F)cc2cnc(NC3CCN(S(C)(=O)=O)CC3)nc21 [Compound 2, reference compound]
- fraction unbound at 6 h [1]: 0.288
- fraction unbound [2]: 0.32
- IC50 ([3]; T47D): 253 ± 55.1 nM
- IC50 ([4]; HCC1428, 168 h): 96.7 ± 26.4 nM
- Dog Vdss unbound: (Dog Vdss/dog plasma fu) [5]: 2.8 L/kg
- Vd [5]: 1.1 L/kg
- IC50 ([6]; HCC1428, 168 h): 269 ± 63.9 nM
- IC50 [7]: 79.8 nM
- IC50 ([8]; A549, 168 h): 189 nM
